PMC11284790, “Targeting Myeloperoxidase Ameliorates Gouty Arthritis: A Virtual Screening Success Story” (Journal of Medicinal Chemistry, 2024)
Where two headings read alike, the source gives them in different places.

Key:
[1] = biological target: T1, Human leukocyte MPO (Homo sapiens, UniProt P05164); details: read-out: previously reported IC50 for MPO; cited from earlier work
[2] = test system: human peripheral blood neutrophils; assay: Cellular production of HOCl, PMA-activated peripheral blood neutrophils; assay type: cell-based; details: 20 μM compound, 100 nM PMA, 1 h
Procedure: Human neutrophils were obtained from healthy individuals as previously described.[24] The experiments were approved by the local ethics committee (CEPSH-ICB 1435/18).
(§1) Measurement of HOCl production by 1 × 10^6 dHL-60 or neutrophils was carried out in PBS (10 mM Na2HPO4, 2 mM KH2PO4, 0.5 mM MgCl2, 1 mM CaCl2, 140 mM NaCl, 5.5 mM dextrose, 100 μM diethylenetriaminepentaacetic acid, 5 mM taurine) in the presence of the compounds (20 μM in 0.3% DMSO) or 0.3% DMSO (control). Cells were activated with phorbol myristate acetate (100 nM) at 37 °C for 1 h. After incubation, cells were centrifuged at 1400 rpm for 10 min, and the supernatant was diluted threefold. Finally, 240 μL of this supernatant was added to 60 μL acetate buffer (400 mM, pH 5.4) containing NaI (100 μM) and TMB (2 mM in DMFO 10%). Taurine chloramine was quantified by TMB oxidation at 655 nm.[33] Inhibition of HOCl production was calculated as the percentage of the control (vehicle).

[3] = biological target: T1, Human leukocyte MPO; assay: MPO peroxidatic activity assay (AmplexRed oxidation); assay type: biochemical; parameters: Human leukocyte MPO (EC 1.7.1.11) was purchased from Planta Natural Products; purchased Planta Natural Products (Vienna, Austria); host or cells: human leukocytes
Procedure: MPO peroxidase activity was kinetically monitored using the artificial peroxidase substrate AmplexRed, which is oxidized to resorufin and can be detected by fluorescence.[34] Reactions were carried out in phosphate buffer (50 mM, pH 7.4), MPO (100 pM), cetyltrimethylammonium chloride (0.03%), diethylenetriaminepentaacetic acid (100 μM), AmplexRed (30 μM), and compounds (20 μM in 0.3% DMSO). The reaction was started by adding 2 μM hydrogen peroxide. The reaction product was assessed by fluorescence at λex = 530 and λem = 580 nm. The initial velocity was calculated by the slope of the linear regression in the first minutes of reaction. Inhibition is represented as a percentage of the control (vehicle).

[4] = biological target: T1, Human leukocyte MPO; assay: MPO chlorinating activity assay (taurine chloramine/TMB); assay type: biochemical; parameters: Human leukocyte MPO (EC 1.7.1.11) was purchased from Planta Natural Products; purchased Planta Natural Products (Vienna, Austria); host or cells: human leukocytes; details: for IC50: pH 7.4
Procedure: Chlorinating activity was carried out in phosphate buffer (20 mM, pH 7.4). Compounds (20 μM) were dissolved in 0.03% DMSO, MPO (10 nM), diethylenetriaminepentaacetic acid (100 μM), cetyltrimethylammonium chloride (0.03%), NaCl (140 mM), and taurine (5 mM).[31] This mixture was incubated at 37 °C for 15 min before adding 40 μM hydrogen peroxide. The reaction ran for 8 min and was then stopped by catalase (20 μg/mL). Oxidation of TMB (2 mM) (3,3,5,5-tetramethylbenzidine) by taurine chloroamine catalyzed by iodide (100 μM) was quantified at 650 nm.[33] Results were expressed as a percentage of the control (vehicle). IC50 was calculated by nonlinear regression using the Hill equation present in GraphPad Prism 5 software.

[5] = test system: human neutrophils; assay: MSU-induced NETosis assay (sytox green fluorescence microscopy); assay type: cell-based; details: 20 μM compound, MSU 250 μg/mL, 90 min
Procedure: NETosis assay was conducted on human neutrophils adhered to lysine-coated glass coverslips as previously reported.[80] After neutrophils’ adhesion, the compounds were diluted in RPMI medium (free of phenol red and fetal bovine serum) at a final concentration of 20 μM (0.15% DMSO) and added to the cells for 15 min at 37 °C in a 5% CO2 atmosphere. Then, MSU crystals (250 μg/mL), known to induce NETosis, were added. After 90 min incubation, the medium was carefully removed, paraformaldehyde was added (500 μL at 4%), and incubated at 4 °C overnight. In the following day, paraformaldehyde was removed, and cells were washed threefold with tris-HCl buffer (20 mM, pH 7.4) and kept into the same buffer at 4 °C. Tris-HCl buffer was carefully removed, and DNA was stained by adding 500 μL SYTOX Green (500 nM diluted in tris-HCl buffer). The system was kept for 30 min at room temperature, protected from light. After staining, the coverslips were mounted over the glass slides using ProLong Diamond Antifade Mountant fixation medium. Fluorescence images were acquired in an Axiovert 200 (Zeiss) fluorescence microscope with a 20x/0.4 objective and Zeiss Filter Set 09, λex = 450–490 nm, λem = above 515 nm. Images were taken by an Axiocam HR R3 camera device.

[6] = test system: dHL-60 cells; assay: Cellular production of HOCl, PMA-activated dHL-60 cells; assay type: cell-based, human; details: 20 μM compound, 100 nM PMA, 1 h
Procedure: Human promyelocytic leukemic cells (HL-60) (BCRJ, RJ, Brazil) were cultivated in RPMI with fetal bovine serum (10%), penicillin (62 μg/mL), and streptomycin (100 μg/mL) at 37 °C in 5% CO2 atmosphere. HL-60 cells were differentiated to neutrophil-like (dHL-60) by DMSO (1.25%) during 4 days.[25]
as §1

[7] = Taurine chloroamine scavenger assay; details: 15 min at 37 °C, TMB readout
Procedure: Taurine chloramine was prepared by mixing hypochlorous acid (2.81 mM) with taurine (5 mM), cetyltrimethylammonium chloride (0.03%), NaCl (140 mM), and diethylenetriaminepentaacetic acid (100 μM) in phosphate buffer (20 mM, pH 7.4). The system was kept at 37 °C for 5 min for complete chloramine taurine formation. The compounds were added to this mixture and incubated for 15 min at 37 °C. Taurine chloramine was quantified by the oxidation of TMB (2 mM) catalyzed by iodide (100 μM).[33]

[8] = test system: MSU-induced paw edema; assay: MSU-induced paw edema, intraperitoneal treatment; assay type: in vivo; details: for reduction of paw edema (time-dependent AUC) vs VEH + MSU: 30 mg/kg i.p.; for effect on paw edema over time: i.p. 30 min before MSU, mefenamic acid 30 mg/kg, RL6 3, 10, 30, RL7 0.3, 3, 30, ZINC9089086 3, 10, 30 mg/kg, 6 h
Procedure: MSU-induced edema was performed as previously described.[22] The compounds were prepared by dilution in a solution containing 0.5% Tween 80 and 5% DMSO and then resuspended in PBS prior to administration. The animals were treated intraperitoneally (i.p.) with the following substances: vehicle (VEH: 5% DMSO; 0.5% Tween 80 in PBS), mefenamic acid (a nonsteroidal anti-inflammatory drug at a dosage of 30 mg/kg), RL6 (at doses of 3, 10, and 30 mg/kg), RL7 (at doses of 0.3, 3, and 30 mg/kg), or ZINC9089086 (at doses of 3, 10, and 30 mg/kg).[31] After 30 min, the mice were anesthetized using inhaled isoflurane (2% v/v in O2). A hypodermic syringe with a 31-gauge needle (BD, Franklin Lakes, NJ, USA) was used to administer the vehicle (VEH: PBS, 30 μL) or MSU (1.5 mg/30 μL) via the intraplantar route (i.pl.), into the right hind paw (Figure 9).
(§2) Paw volume (mL) was measured at various time points, including before injection (baseline, B), […] 1, 2, 3, 4, 5, and 6 h following MSU injection using a plethysmometer (Ugo Basile, Comerio, Italy) (Figure 7). For this, the injected hind paw was immersed into the dipping solution (6 mM NaCl diluted in distilled water and added with 2 mL/L of a wetting compound provided by the manufacturer) until the ankle. The extent of edema was quantified as a change in paw volume (Δ mL) by subtracting the basal paw volume from the volume of the paw measured at each time point. To evaluate the antiedematogenic effect of orally administered MPO inhibitors (p.o.), the animals were fasted for 1 h and then treated with equimolar doses of the following substances: vehicle (VEH: 5% DMSO; 0.5% tween 80 in PBS), mefenamic acid (30 mg/kg), RL 6 (33 mg/kg), RL 7 (54 mg/kg), RL 21 (30 mg/kg), or ZINC9089086 (34 mg/kg). After 1 h, the anesthetized mice (2% isoflurane, v/v in O2) received either the vehicle (PBS, 30 μL, i.pl.) or 1.5 mg/30 μL MSU (i.pl.). The paw volume was evaluated at the same time points as previously described. The percentage of edema inhibition by the compounds was calculated discounting the paw volume of mice that received oral or intraperitoneal vehicle and PBS intraplantar (VEH + VEH).

[9] = test system: IL-1β; assay: Paw tissue IL-1β level after MSU (ELISA); assay type: in vivo, male C57BL/6 mice; details: intraperitoneal pretreatment (RL6 30 mg/kg), tissue collected at 6 h
Procedure: (§3) The remaining part of the homogenate was treated with a solution of protease/phosphatase inhibitors (1 mM phenylmethylsulfonyl fluoride, 10 μg/mL leupeptin, and 10 μg/mL trypsin inhibitor) and centrifuged at 10,000g (10 min at 4 °C). The obtained supernatants were subjected to 1:2 dilution in PBS and subsequently used for the assessment of IL-1β and IL-6 using murine enzyme-linked immunosorbent assay kits, specifically a sandwich ELISA technique, following manufacturer’s instructions (BioLegend, CA, USA). The protein content within the samples was determined by using the Bradford method (1976). The results were quantified and expressed in pg/mg of protein (Bio-Rad, Hercules, CA, USA).[76]

[10] = test system: total peroxidase activity; assay: Paw tissue total peroxidase activity after MSU; assay type: in vivo, male C57BL/6 mice; details: intraperitoneal pretreatment (RL6 30 mg/kg), tissue collected at 6 h
Procedure: After the assessment of paw edema was completed, the mice were immediately anesthetized by inhalation of 2% isoflurane mixture in oxygen (O2). Subsequently, the surface of the hind paws was collected for the measurement of total peroxidase activity, IL-6, and IL-1β. These tissue samples were then frozen using dry ice and stored at −80 °C until further analysis. The frozen tissues were later pulverized into a fine powder using liquid nitrogen and homogenized in a phosphate buffer (100 mM, pH 7.4). For the analysis of total peroxidase activity, a portion of this homogenate was mixed with hexadecyltrimethylammonium (1% HTAB, pH 6.0), vigorously vortexed, and sonicated. The resulting mixture was then centrifuged at 10,000g for 10 min, at 4 °C, and heated at 60 °C for 2 h. The sample of each supernatant was incubated with a solution containing 50 mM phosphate buffer, 0.164 mg/mL of o-dianisidine dihydrochloride, and H2O2 (0.0005%, pH 6.0). […] Each unit represents the capacity to degrade 1 μmol of H2O2 per minute.[81]

[11] = test system: MSU-induced paw edema; assay: MSU-induced paw edema, oral treatment; assay type: in vivo, male C57BL/6 mice
Procedure: as §2

[12] = test system: IL-6; assay: Paw tissue IL-6 level after MSU (ELISA); assay type: in vivo, male C57BL/6 mice; details: intraperitoneal pretreatment (RL6 30 mg/kg), tissue collected at 6 h
Procedure: as §3

[13] = 20 μM compound, 10 nM MPO, 140 mM NaCl, 5 mM taurine, 40 μM H2O2, pH 7.4, read-out: % Inhibition (at 20 μM) Chlorinating
[14] = supplementary csv copy of Table 1, read-out: % Inhibition (Chlorinating)

T1 sequence (P05164 279-745 limits assumed): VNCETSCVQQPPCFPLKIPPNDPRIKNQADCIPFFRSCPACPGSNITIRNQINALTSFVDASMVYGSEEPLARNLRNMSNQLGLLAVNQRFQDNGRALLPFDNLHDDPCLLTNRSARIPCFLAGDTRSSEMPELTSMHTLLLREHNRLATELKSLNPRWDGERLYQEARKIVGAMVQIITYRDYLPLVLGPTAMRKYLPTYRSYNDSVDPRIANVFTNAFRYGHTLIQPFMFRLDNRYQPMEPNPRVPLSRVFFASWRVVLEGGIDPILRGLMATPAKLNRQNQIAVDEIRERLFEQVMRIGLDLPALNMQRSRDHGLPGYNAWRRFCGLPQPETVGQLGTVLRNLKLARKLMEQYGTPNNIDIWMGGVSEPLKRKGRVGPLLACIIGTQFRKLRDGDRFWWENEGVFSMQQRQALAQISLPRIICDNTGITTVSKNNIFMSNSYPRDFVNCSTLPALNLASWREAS
T1 sequence (P05164 165-278 limits assumed): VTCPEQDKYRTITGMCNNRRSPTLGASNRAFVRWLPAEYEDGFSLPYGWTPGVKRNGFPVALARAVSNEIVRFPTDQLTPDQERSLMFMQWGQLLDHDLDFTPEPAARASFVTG

| IC50 ([4]; 10 nM MPO, 140 mM NaCl) [µM] | inhibition at 20 µM [4, 13] [%] | inhibition at 20 µM [4, 14] [%] | SMILES | inhibition of HOCl production in peripheral blood neutrophils [2] | inhibition of HOCl production in dHL-60 cells [6] | reduction of paw edema (time-dependent AUC) vs VEH + MSU [8] [%] | effect on paw edema over time [8] | decrease in IL-1β levels in hind paw tissue [9] | reduction in total peroxidase activity in hind paw tissue [10] | effect on IL-6 levels in hind paw tissue [12] | also measured |
| --- | --- | --- | --- | --- | --- | --- | --- | --- | --- | --- | --- |
| 5.25 | 92.3 ± 11.6 | 92.3 ± 11.6 | CCCc1cc(=O)[nH]c(=S)[nH]1 [PTU, propylthiouracil, reference compound] | most effective | most effective | – | – | – | – | – | IC50 [1]: 3.38 µM; inhibition at 20 µM ([3]; 20 μM compound, 100 pM MPO, 30 μM AmplexRed, 2 μM H2O2, pH 7.4, read-out: % Inhibition (at 20 μM) Peroxidatic): 94.1 ± 26.4%; inhibition at 20 µM ([3]; supplementary csv copy of Table 1, read-out: % Inhibition (Peroxidatic)): 94.1 ± 26.4%; inhibition of MSU-induced NETosis [5]: strongly inhibited |
| 12 | 73 ± 19.7 | 73 ± 19.7 | COc1ccc(C(=O)Nc2ccc(-c3nnc(S)o3)cc2)cc1 [RL18] | no effect | no effect | – | – | – | – | – | % Inhibition (at 20 μM) Peroxidatic ([3]; 20 μM compound, 100 pM MPO, 30 μM AmplexRed, 2 μM H2O2, pH 7.4): INACTIVE; % Inhibition (Peroxidatic) ([3]; supplementary csv copy of Table 1): INACTIVE; scavenger activity toward taurine chloramine [7]: scavenger capacity; % Inhibition (at 20 μM) Chlorinating ([4]; 20 μM compound, 10 nM MPO, 140 mM NaCl, 5 mM taurine, 40 μM H2O2, pH 7.4): active against chlorinating activity only; chlorinating/peroxidatic activity inhibition ratio ([4]; ratio of % inhibition at 20 μM, ~1 indicates true enzyme inhibitor): high |
| – | – | – | CCc1c(O)[nH]c2nc3ccccc3n2c1=O [ZINC9089086] | – | – | 93.4 | inhibited paw edema at all of the tested doses | unable to decrease | unable to decrease | unable to decrease | inhibition of edema vs VEH + MSU ([11]; 34 mg/kg po): no significant inhibition |
| – | – | – | Cc1cccc(Nc2ccccc2C(=O)O)c1C [mefenamic acid, reference compound] | – | – | 91.1 | prevented paw edema for up to 4 h | unable to decrease | unable to decrease | unable to decrease | inhibition of edema vs VEH + MSU ([11]; 30 mg/kg, positive control of the oral experiment (Figure 8 legend: i.p.)): 77.3% |
